Experimental findings from patent publication US10835564B2, “Composition for preventing and treating premature ovarian failure, containing Evodia rutaecarpa bentham extract having protective activity against ovotoxicity” (DONGGUK UNIVERSITY GYEONGJU CAMPUS INDUSTRY-ACADEMY …, priority 2015, dated 2020) are described below.

This experiment has as its system CHO-K1 cells. As to the kind of experiment: MTT assay, cytotoxicity against CHO-K1 cells. The experiment is classed as cell-based, hamster. To be noted: 24 hours, FIG. 4, read-out: concentration at which the viability of CHO-K1 cells became about 50%. On the procedure:
The cell viability was analyzed by a 3-(4,5-dimethylthiazol)-2,5-diphenyltetrazolium bromide (MTT) assay method. After CHO-K1 cells at 2×10^4 cells/well were cultured in a 48-well plate and then serum starved for 4 hours, VCD was treated at various concentrations or the respective medicines were pre-treated at 100 μg/ml, VCD (1.5 mM) was sequentially treated, and the cells were cultured under the conditions of 37° C. and 5% CO2 for 24 hours. After 30 μl of an MTT solution (2 mg/ml) per well was added thereto and the resulting mixture was allowed to react in an incubator at 37° C. and 5% CO2 for 3 hours, the MTT solution and the culture solution were completely removed, and then formazan crystallites formed in the cells were dissolved by using 150 μl of dimethyl sulfoxide (DMSO, Sigma-Aldrich, USA), and the absorbance thereof was measured at 595 nm by using an ELISA plate reader (DYNEX, Opsys MR, USA). The cell viability for the control was expressed as a percentage.
The cytotoxicity of VCD against CHO-K1 cells was evaluated by the MTT assay according to Example 1-4, and as a result, the concentration (1.5 mM) at which the viability of CHO-K1 cells by VCD became about 50% was determined (see FIG. 4), and the result was applied to the following experiment. […]
(Tetrazolium dyes change colour on reduction, which living cells bring about.)

As for `C1CC2OC2CC1C1CO1` (stereo not shown) [VCD, 4-vinylcyclohexene diepoxide], the IC50 turned out to be 1500 µM.
